Results taken from patent publication US20210038668A1, “TRADITIONAL CHINESE MEDICINE COMPOSITION FOR PREVENTING AND/OR TREATING ISCHEMIC REPERFUSION INJURY” (TASLY PHARMACEUTICAL GROUP CO., LTD., priority 2018, published 2021).

Experiments:
[1] = tested on: cerebral cortex vessels and neurons in penumbra; assay: Transmission electron microscopy of cerebral cortex; type: in vivo, C57BL/6 mice; details: 24 h after administration
Protocol: Transmission electron microscope (IEM): after reperfused for 24 hours, anesthetized mice were perfused 3% glutaraldehyde for 40 minutes via ventriculus sinister at a rate of 3 ml/min; the brain was taken, and the mice right cortex was cut into small pieces (1 mm×1 mm×1 mm); small pieces were immobilized in 3% glutaraldehyde for 30 minutes at room temperature or stored over night at 4° C. The brain pieces were washed on a table containing sucrose for 3 times for 15 minutes, immobilized by osmic acid for 2 hours at room temperature, washed by 0.2; PBS for 3 times for 15 minutes, dehydrated for 15 minutes respectively by 30%, 50%, 70% and 90% acetone, and dehydrated for 15 minutes for 15 minutes by 100% acetone, then preimpregnated into a pre-embedding agent mixed by 100% acetone and embedding agent according to a ratio of 1:1; and kept over the night at 37° C.; then brain pieces were impregnated by a pure embedding agent for 24 hours at 37° C., and cured for 48 hours, then naturally cooled; afterwards, brain pieces were trimmed and cut into slices with the thickness of 60 nm. The slices were stained by uranyl acetate and lead citrate, and observed and shoot by a IEM (JEM 1230, JEOL, Tokyo, Japan).

mitochondrial complex I = assay: Mitochondrial complex I activity in brain tissue; type: in vivo, C57BL/6 mice; details: brain tissue 24 hours after administration; tPA 10 mg/kg alone or + T541 20 mg/kg or ingredients at Table 7 doses
Text: To compare the therapeutical effect on reperfusion injury caused by tPA thrombolysis between the traditional Chinese medicinal composition of the present invention and each ingredient (total saponins of Astragalus, the experiment was divided into the following group (tPA is combined with T541, individual ingredient thereof and compatibility of any two ingredients) specifically as follows: tPA+total saponins of Astragalus (tPA+HQ), tPA+ salvianolic acids (tPA+DS), tPA+Panax notoginseng saponins (tPA+SQ), tPA+ total saponins of Astragalus+salvianolic acids (tPA+HQ+DS), tPA+ total saponins of Astragalus+Panax notoginseng saponins (tPA+HQ+SQ), tPA+ salvianolic acids+Panax notoginseng saponins (tPA+DS+SQ) and tPA+T541. Normal saline served as an isovolumetric control. The usage number in each group is 6.
ELISA adsorption kit was used to measure the change on the content of MDA, 8-hydroxyl-2′-deoxyguanosine (8-OHdG), adenosine triphosphate (ATP), adenosine diphosphate (ADP) and adenosine monophosphate (AMP) in the penumbra field of brain tissue cortex of the mode, and the change on the activity of mitochondrial complexes I, II, IV and V. 6 samples were used to repeat the independent experiment for at least three times for each group of data.

[2] = tPA alone, T541 combined with tPA

## tPA: tissue-type plasminogen activator (tPA) for thrombolysis
[1]; tPA 10 mg/kg alone, T541 20 mg/kg + tPA
  TEM: vascular endothelium and perivascular edema (in words): vascular endothelium is rough, and has obvious edema gap with surrounding tissues
[1]; [2]
  TEM: endothelial cell adhesion structure of cerebral cortex vessels (in words): the close adhesion structure of cerebral cortex vessels in penumbra field is opened
  TEM: neurons of cerebral cortex in penumbra (in words): bodies of neuron shrink and deform
Mitochondrial complex I
  Complex I activity: 1.75 ± 0.14
